Source: patent publication US20130210143A1, “NOVEL METHODS FOR PREVENTING OR TREATING DIABETES” (FUNDACION PUBLICA ANDALUZA PROGRESO Y SALUD, priority 2010, published 2013)
“Also recorded” adds a separate entry of the source.

Legend:
LRH-1 = assay: Quantitative RT-PCR of LRH-1 transcript levels in treated human islets; type: cell-based; settings: for LRH-1 expression (transcript levels): 10 nM 17β-estradiol (6 hours) or 10 or 50 uM Formula II (any time point)
Description: (§1) INS-1E cells or islets (rat or human) were cultured in phenol red free medium containing 10% Charcoal-stripped FCS for 48 h. The latter removes all traces of endogenous steroids, which may skew results. Subsequently, 0.0001% DMSO (vehicle) and/or 10 nM 17β-estradiol were added to the media. Alternatively human islets were also treated with increasing concentrations of either DMSO (vehicule) or with a combination of estrogen and the LRH-1 agonist of Formula II (SevenHills Pharma, Fort Collins, USA) for various time intervals. For apoptosis studies (FIG. 8A), islets were pre-treated with 0.1% DMSO (vehicule) or with 10 μM of the LRH-1 agonist of Formula II. Twenty-four hours later, DMSO or the LRH-1 agonist of Formula II were added again to the medium and incubated for 1 extra hour prior to the addition of either a cocktail of human cytokines (2 ng/ml IFN-γ, IL-1β and TNF-α). Samples of 50 islets were then collected at 24 and 72 hours. The media was replenished with DMSO and the LRH-1 agonist of Formula II at 24 and 48 hours.
(§2) Total RNA was extracted using the RNeasy Micro Kit (Qiagen) and 1-2 μg was converted into cDNA with the Superscript II Reverse transcriptase (Invitrogen). Primers were designed using the Primer Express software (Applera Europe, Rotkreuz, Switzerland) and sequences are provided in Table 1. Real time PCR was performed using an ABI 7000 Sequence Detection System (Applera Europe), and PCR products were quantified fluorometrically using the FastStart Universal SYBR Green Master (Roche Diagnostics, Rotkreuz, Switzerland). Three distinct amplifications were performed in duplicate for each transcript, and mean values were normalized to the mean value of the reference mRNA cyclophilin.

SHP = assay: Quantitative RT-PCR of SHP (LRH-1 downstream target) transcript levels in treated human islets; type: cell-based; settings: for Further stimulation of SHP expression: human islets, increased concentration of Formula II or addition of 17β-estradiol
Description: as §1, §2

Type 2 diabetic islets = assay: Glucose-stimulated insulin secretion, islets from Type 2 diabetic donors; type: cell-based, human
Description: (§3) Twenty human islets/sample were preincubated with KRBH buffer (135 mM NaCl, 3.6 mM KCl, 2 mM NaHCO3, 0.5 mM NaH2PO4, 0.5 mM MgSO4, 1.5 mM CaCl2, 10 mM HEPES, pH 7.4, and 0.1% bovine serum albumin) containing 2.5 mM glucose for 30 min. Cells were then incubated for 30 min in KRBH buffer containing 2.5 mM or 16.5 mM glucose. In some instances islets were also cultured in the presence of increasing concentrations of a LRH-1 agonist of Formula II or glibenclamide. Insulin content, obtained by 10% acetic acid/ethanol (v/v) treatment on islets, and secreted insulin were quantified using the rat insulin enzyme immunoassay kit (Spi-Bio, Montigny le Bretonneux, France).

human islets [1] = assay: Cytokine-induced apoptosis in human islets (Cell Death Detection ELISA); type: cell-based; settings: 10 uM, cytokines 2 ng/ml IFN-γ, IL-1β and TNF-α, 24 hours post-treatment
Description: INS-1E cells or islets (rat or human) were cultured in phenol red free medium containing 10% Charcoal-stripped FCS for 48 h. The latter removes all traces of endogenous steroids, which may skew results. Subsequently, 0.0001% DMSO (vehicle) and/or 10 nM 17β-estradiol were added to the media. Alternatively human islets were also treated with increasing concentrations of either DMSO (vehicule) or with a combination of estrogen and the LRH-1 agonist of Formula II (SevenHills Pharma, Fort Collins, USA) for various time intervals. For apoptosis studies (FIG. 8A), islets were pre-treated with 0.1% DMSO (vehicule) or with 10 μM of the LRH-1 agonist of Formula II. […]
For proliferation, 10 μM BrdU was added to INS-1E cells for 3 h, and to rat or human islets for 24 h. […] Cell apoptosis induced either by cytokines or streptozotocin was measured using the TUNEL assay (In Situ Cell Death Detection Kit, Roche). Alternatively, the Cell Death Detection ELISA^PLUS (Roche) was used to quantify the degree of cytoplasmic histone-associated-DNA-fragments. Results of BrdU and TUNEL assays are expressed as a percentage of BrdU- or TUNEL-positive cells (fluorescein- or TMR-red-labelled nuclei) over the total amount of cells (nuclei staining by DAPI). […]

human islets [2] = assay: MTT toxicity test (cell viability) in isolated human islets; type: cell-based; settings: for Islet viability (MTT): islets of the first Type 2 diabetic donor, 48 h, Formula II at 50 uM
Description: The MTT (C,N-diphenyl-N′-4,5-dimethyl thiazol-2-yl tetrazolium bromide) colorimetric assay (reduction of tetrazolium salt to formazan) was used to measure cell viability. The assay provides an indirect estimation of mitochondrial oxidative processes of living cells (Janjic, 1992). Briefly, 40 isolated human islets were incubated for 24 or 48 hours with DMSO or a combination of DMSO and the LRH-1 agonist of Formula II. Islets were washed and pre-incubated with KRBH at 37° C. for 40 minutes. Islets were then incubated at 37° C. for 90 minutes with KRBH containing yellow MTT (0.5 mg/ml). Cells were wash and incubated for 20 minutes at room temperature in DMSO to solubilize formazan crystals. Colorimetric measurements were performed at 570 nm with reference wavelength 650 nm automatically subtracted.

[3] = molecular target: T1, ligand binding domain of human LRH1 (Homo sapiens, UniProt O00482); settings: Whitby et al. (2006); cited from earlier work
T1 construct: made in house

control islets = assay: Glucose-stimulated insulin secretion, control (non-diabetic) human islets; type: cell-based
Description: as §3

[4] = islets from a second Type 2 diabetic donor

T1 sequence (O00482 300-541): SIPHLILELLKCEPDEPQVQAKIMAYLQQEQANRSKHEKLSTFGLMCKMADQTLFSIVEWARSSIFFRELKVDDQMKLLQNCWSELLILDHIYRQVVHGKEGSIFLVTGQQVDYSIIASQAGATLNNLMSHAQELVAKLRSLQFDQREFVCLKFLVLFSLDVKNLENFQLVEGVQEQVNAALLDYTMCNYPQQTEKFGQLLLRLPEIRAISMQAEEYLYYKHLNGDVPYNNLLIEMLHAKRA

Row | SMILES | LRH-1 expression (transcript levels) (LRH-1) | Further stimulation of SHP expression (SHP) | LRH-1 expression on addition to 17β-estradiol (LRH-1; Formula II combined with 17β-estradiol) | Glucose-induced insulin secretion (Type 2 diabetic islets; islets from a Type 2 diabetic donor, 50 uM, not significant) | Insulin secretion in response to high glucose concentrations (Type 2 diabetic islets; [4]) | Insulin secretion in response to low glucose concentrations (Type 2 diabetic islets; [4]) | Cytokine-induced enrichment in apoptotic cells, 24 hours (human islets [1]) | Viability by MTT (cytotoxicity) (human islets [2]; human islets, up to 50 uM, 24 or 48 hours post treatment) | Islet viability (MTT) (human islets [2]) | SHP transcript levels, increase (SHP; human islets treated for 10 hours, transient) [fold] | EC50 [3] [µM] | Increase in basal insulin exocytosis (control islets; 50 uM, low glucose) [%] | Glucose-induced insulin secretion (control islets; 16.5 mM glucose) | Insulin secretion at high glucose as compared to control islets (Type 2 diabetic islets; islets from a Type 2 diabetic donor, high glucose (16.5 mM)) [%] | Increase in insulin secretion at low glucose (Type 2 diabetic islets; islets from a Type 2 diabetic donor, low glucose) [%]
1 | C[C@]12CC[C@@H]3c4ccc(O)cc4CC[C@H]3[C@@H]1CC[C@@H]2O [17β-estradiol, reference compound] | transiently increased | did not further stimulate expression of SHP |  |  |  |  |  |  |  |  |  |  |  |  | 
2 | CCC/C=C(\CCC)C1=C(c2cccc(OC)c2)C2(Nc3ccccc3)CCCC2C1 (stereo not drawn) [Formula II] | did not enhance transcript levels | did not further stimulate expression of SHP | prevented the induction of LRH-1 expression | slight increase | increased insulin secretion | increased insulin secretion | completely abrogated | no toxic effects; also recorded: no apparent detrimental effect | slightly reduced | 2 | 0.43 | 50 | unchanged |  | 
3 | COc1ccc(Cl)cc1C(=O)NCCc1ccc(S(=O)(=O)NC(=O)NC2CCCCC2)cc1 [Glibenclamide, reference compound] |  |  |  |  |  |  |  |  | impaired cell viability |  |  |  |  | 214 | 80
